The record followed here is US20070142362A1, “4,5-Dihydro-(1H)-pyrazole derivatives as cannabinoid CB1 receptor modulators” (SOLVAY PHARMACEUTICALS B.V., priority 2005, published 2007).

Data set [1] addresses T1, human cannabinoid CB1 receptor (Homo sapiens, UniProt P21554).
T1 construct: expressed in transfected cells; host or cells: CHO cells, stably transfected; membrane preparation
Nature of the data set: In vitro affinity for cannabinoid-CB1 receptors ([3H]CP-55,940 radioligand binding, CHO cell membranes). To be noted: mean of at least three independent experiments, read-out: Human CB1 receptor binding pKi (converted). The procedure:
In Vitro Affinity for Cannabinoid-CB1 Receptors
The affinity of the compounds of the invention for cannabinoid CB1 receptors can be determined using membrane preparations of Chinese hamster ovary (CHO) cells in which the human cannabinoid CB1 receptor is stably transfected in conjunction with [^3H]CP-55,940 as radioligand. After incubation of a freshly prepared cell membrane preparation with the [^3H]-ligand, with or without addition of compounds of the invention, separation of bound and free ligand is performed by filtration over glassfiber filters. Radioactivity on the filter is measured by liquid scintillation counting.

The target in data set [2] is T2, human cannabinoid CB2 receptor (Homo sapiens, UniProt P34972).
T2 construct: expressed in transfected cells; host or cells: CHO cells, stably transfected; membrane preparation
Kind of data set: In vitro affinity for cannabinoid-CB2 receptors ([3H]CP-55,940 radioligand binding, CHO cell membranes). To be noted: mean of at least three independent experiments, read-out: Human CB2 receptor binding pK1 (converted). The procedure:
In Vitro Affinity for Cannabinoid-CB2 Receptors
The affinity of the compounds of the invention for cannabinoid CB2 receptors can be determined using membrane preparations of Chinese hamster ovary (CHO) cells in which the human cannabinoid CB2 receptor is stably transfected in conjunction with [^3H]CP-55,940 as radioligand. After incubation of a freshly prepared cell membrane preparation with the [^3H]-ligand, with or without addition of compounds of the invention, separation of bound and free ligand is performed by filtration over glassfiber filters. Radioactivity on the filter is measured by liquid scintillation counting.

Data set [3] concerns the target T3, human CB1 receptor (Homo sapiens, UniProt P21554).
T3 construct: expressed in transfected cells; host or cells: CHO cells
Kind of data set: In vitro cannabinoid-CB1 receptor (ant)agonism: [3H]-arachidonic acid release in CHO cells. Type of data set: cell-based. As to conditions: CHO cells with human CB1 receptor, read-out: Human CB1 Arachidonic acid release (CB1) pEC50 (converted). The procedure: In Vitro Cannabinoid-CB1Receptor (Ant)Agonism
In vitro CB1 receptor antagonism/agonism can be assessed with the human CB1 receptor cloned in Chinese hamster ovary (CHO) cells. CHO cells are grown in a Dulbecco's Modified Eagle's medium (DMEM) culture medium, supplemented with 10% heat-inactivated fetal calf serum. Medium is aspirated and replaced by DMEM, without fetal calf serum, but containing [^3H]-arachidonic acid and incubated overnight in a cell culture stove (5% CO2/95% air; 37° C.; water-saturated atmosphere). During this period [^3H]-arachidonic acid is incorporated in membrane phospholipids. On the test day, medium is aspirated and cells are washed three times using 0.5 ml DMEM, containing 0.2% bovine serum albumin (BSA). CB1 agonist stimulation leads to activation of PLA2 followed by release of [^3H]-arachidonic acid into the medium. This CB1 agonist-induced release is concentration-dependently antagonized by CB1 receptor antagonists, such as for example rimonabant.

The target in data set [4] is T4, human CB2 receptor (Homo sapiens, UniProt P34972).
T4 construct: host or cells: CHO K1 cells
Nature of the data set: In vitro cannabinoid-CB2 receptor (ant)agonism: forskolin-stimulated cAMP accumulation (adenylate cyclase activity) in CHO K1 cells. The format is cell-based. To be noted: for EC50: agonism, 3x10^-7 M forskolin, read-out: Human CB2 CB2-mediated adenylate cyclase activity pEC50 (converted). As for the experimental part: In Vitro Cannabinoid-CB2 Receptor (Ant)Agonism
Functional activity at the cannabinoid CB2 receptor was assessed using a forskolin-stimulated cAMP accumulation assay. The ability of compounds to stimulate and inhibit adenylate cyclase activity was assessed in Chinese ovarian hamster (CHO) K1 cells expressing human CB2 (Euroscreen, Brussel) receptor. CHO cells were grown in a CHO—S—SFM-II culture medium, supplemented with 10% heat-inactivated foetal calf serum, 2 mM glutamine, 400 μg/ml Hygromycine B and 500 μg/ml G418 at 37° C. in 93% air/5% CO2. For incubation with test compounds, confluent cultures grown in 24 well plates were used. Each condition or substance was routinely tested in quadruplicate. Cells were loaded with 1 mCi [^3H]-adenine in 0.5 ml medium per well. After 2 hours, cultures were washed with 0.5 ml PBS containing 1 mM IBMX and incubated for 20 minutes with 0.5 ml PBS containing 1 mM IBMX and 3×10^−7 M forskolin with or without the test compound. Antagonistic effects of test compounds were determined as inhibition of 0.1 μM JWH-133-decreased [^3H]cAMP formation. After aspiration the reaction was stopped with 1 ml trichloroacetic acid (5% w/v). The [3H]-ATP and [^3H]-cAMP formed in the cellular extract were assayed as follows: a volume of 0.8 ml of the extract was passed over Dowex (50WX-4200-400 mesh) and aluminum oxide columns, eluted with water and 0.1 M imidazole (pH=7.5). Eluates were mixed with 7 ml Ultima-Flo [AP] and the β-radioactivity was counted with a liquid scintillation counter. The conversion of [^3H]-ATP into [^3H]-cAMP was expressed as the ratio in percentage radioactivity in the cAMP fraction as compared to the combined radioactivity in both cAMP and ATP fractions, and basal activity was subtracted to correct for spontaneous activity. […] Compounds were studied in a concentration range of 10^−10 M to 10^−6M. pEC50 and the pA2 were calculated according to Cheng-Prusoff equation (Cheng and Prusoff, 1973). […]
(Changes in cAMP serve as a functional read-out for many G protein-coupled receptors.)

The structures appear in SMILES notation.

T1 sequence (P21554 whole entry): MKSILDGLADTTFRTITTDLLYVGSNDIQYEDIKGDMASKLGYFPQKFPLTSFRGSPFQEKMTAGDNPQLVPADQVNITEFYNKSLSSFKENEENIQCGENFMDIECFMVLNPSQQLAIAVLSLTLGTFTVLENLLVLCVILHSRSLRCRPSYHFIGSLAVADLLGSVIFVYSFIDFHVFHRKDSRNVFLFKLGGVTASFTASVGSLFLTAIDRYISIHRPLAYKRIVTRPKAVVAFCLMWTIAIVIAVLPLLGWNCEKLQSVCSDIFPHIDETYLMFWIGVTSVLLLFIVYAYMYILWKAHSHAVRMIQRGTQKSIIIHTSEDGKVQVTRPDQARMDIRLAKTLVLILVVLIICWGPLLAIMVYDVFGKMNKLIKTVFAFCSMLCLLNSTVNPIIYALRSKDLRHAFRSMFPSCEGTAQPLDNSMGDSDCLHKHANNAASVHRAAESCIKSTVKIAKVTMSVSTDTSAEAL
T3 sequence (P21554 whole entry): as above
T2 sequence (P34972 whole entry): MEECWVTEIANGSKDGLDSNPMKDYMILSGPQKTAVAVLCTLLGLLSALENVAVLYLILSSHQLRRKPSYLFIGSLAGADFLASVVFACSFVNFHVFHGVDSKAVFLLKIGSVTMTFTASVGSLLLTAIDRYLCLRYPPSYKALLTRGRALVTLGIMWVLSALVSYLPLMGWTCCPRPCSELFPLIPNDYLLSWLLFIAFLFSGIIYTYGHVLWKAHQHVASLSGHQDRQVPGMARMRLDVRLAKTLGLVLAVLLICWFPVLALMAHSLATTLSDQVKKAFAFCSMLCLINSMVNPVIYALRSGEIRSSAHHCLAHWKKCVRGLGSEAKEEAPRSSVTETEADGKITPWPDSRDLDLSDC
T4 sequence (P34972 whole entry): as above

Take `CCCCCC1=NN(C(=O)NCC23CC4CC(CC(C4)C2)C3)CC1c1ccccc1` (centres unmarked) [Compound 11, N-(1-Adamantyl)methyl-3-(n-pentyl)-4-phenyl-4,5-dihydro-(1H)-pyrazole-1-carboxamide]: the Ki in data set [1] is 15.8 nM; in data set [2], 7.94 nM. The EC50 in data set [3] is 2000 nM.

Compound `O=C(Nc1ccccc1)N1CC(c2ccc(Cl)cc2)C(Cc2ccc(Cl)cc2)=N1` (centres unmarked) [Compound 41, N-Phenyl-3-(4-chlorobenzyl)-4-(4-chlorophenyl)-4,5-dihydro-(1H)-pyrazole-1-carboxamide] gave a melting point of 156 °C. Also, the Ki in data set [1] is 316 nM. The Ki in data set [2] is 200 nM.

As to `CCCCCC1=NN(C(=O)N[C@H]2C[C@H]3CC[C@]2(C)C3(C)C)CC1c1ccccc1` (stereo partly drawn) [Compound 97, N-Endo-[(1R,2S,4R)-1,7,7-trimethylbicyclo[2.2.1]hept-2-yl]-3-(n-pentyl)-4-phenyl-4,5-dihydro-(1H)-pyrazole-1-carboxamide], the Ki in data set [1] and in data set [2] was 5.01 nM throughout. Besides, the EC50 in data set [3] is < 1 nM. For the same compound, in data set [4] (antagonism of 0.1 μM JWH-133-decreased [3H]cAMP formation), the “Human CB2 CB2-mediated adenylate cyclase activity pA2” value came to 9.2.

`COc1ccc(NC(=O)N2CC(c3ccc(Cl)cc3)C(Cc3ccc(Cl)cc3)=N2)cc1` (centres unmarked) gave a melting point of 116 to 119 °C.

`CCCCCC1=NN(C(=O)c2cccc3ccccc23)CC1c1ccccc1` (centres unmarked) [Compound 87, 1-(1-Naphtoyl)-3-(n-pentyl)-4-phenyl-4,5-dihydro-(1H)-pyrazole]: the Ki in data set [1] is 79.4 nM; in data set [2], 100 nM. Besides, in data set [3], the EC50 was 15.8 nM.

For `CCCCCC1=NN(C(=O)N[C@H]2C[C@H]3CC[C@]2(C)C3(C)C)CC1c1ccccc1` (stereo partly drawn) [Compound 13, N-[Endo-(1R,2S,4R)-1,7,7-trimethylbicyclo[2.2.1]hept-2-yl]-3-(n-pentyl)-4-phenyl-4,5-dihydro-(1H)-pyrazole-1-carboxamide], the Ki in data set [1] and in data set [2] was 7.94 nM in each case. Also, the EC50 in data set [3] was 0.501 nM.

As to `CCCCC1=NN(C(=O)NC(C)(C)Cc2ccccc2)CC1c1ccccc1F` (centres unmarked) [Compound 40, N-(2-phenyl-1,1-dimethyl-ethyl)-3-(n-butyl)-4-(2-fluorophenyl)-4,5-dihydro-(1H)-pyrazole-1-carboxamide], the Ki is 1580 nM in data set [1] and 158 nM in data set [2]. In addition, in data set [4], the EC50 was 7.94 nM.

`CCCCCC1=NN(S(=O)(=O)NC[C@@H]2CC[C@H]3C[C@@H]2C3(C)C)CC1c1ccccc1` (relative stereo) [Compound 130, N-[(1R,2S,5R)-rel-6,6-dimethylbicyclo[3.1.1]heptan-2-methyl]-3-(n-pentyl)-4-phenyl-4,5-dihydro-(1H)-pyrazole-1-sulfonamide]: the Ki in data set [1] was 316 nM; in data set [2] it was 126 nM.

In the case of `CCCCC1=NN(C(=O)NC(C)(C)Cc2ccccc2)CC1c1cccc(F)c1` (centres unmarked) [Compound 39, N-(2-phenyl-1,1-dimethyl-ethyl)-3-(n-butyl)-4-(3-fluorophenyl)-4,5-dihydro-(1H)-pyrazole-1-carboxamide], the Ki in data set [1] was 3980 nM; in data set [2] it was 126 nM. In addition, the EC50 in data set [4] was 7.94 nM.

As to `CCCCCC1=NN(C(=O)NCC2CCCCC2)CC1c1ccccc1` (centres unmarked) [Compound 12, N-(Cyclohexylmethyl)-3-(n-pentyl)-4-phenyl-4,5-dihydro-(1H)-pyrazole-1-carboxamide], the Ki in data set [1] was 15.8 nM; in data set [2] it was 50.1 nM.

Take `CCCCC1=NN(C(=O)NC[C@@H]2CC[C@H]3C[C@@H]2C3(C)C)CC1c1ccccc1` (relative stereo) [Compound 7, N-[(1R,2S,5R)-rel-6,6-dimethylbicyclo[3.1.1]heptan-2-methyl]-3-(n-butyl)-4-phenyl-4,5-dihydro-(1H)-pyrazole-1-carboxamide]: the Ki is 39.8 nM in data set [1] and 10 nM in data set [2]. For the same compound, the EC50 in data set [3] was 631 nM.

Regarding `CCCCCC1=NN(C(=O)Nc2cccc3ccccc23)CC1c1ccccc1` (centres unmarked) [Compound 18, N-(1-Naphtyl)-3-(n-pentyl)-4-phenyl-4,5-dihydro-(1H)-pyrazole-1-carboxamide], the values for the Ki in data set [1] and in data set [2] were 6.31 nM and 31.6 nM, respectively.

Take `CCCCCC1=NN(C(=O)NC2CCCCCC2)CC1c1ccccc1` (centres unmarked) [Compound 109, N-cycloheptyl-3-(n-pentyl)-4-phenyl-4,5-dihydro-(1H)-pyrazole-1-carboxamide]: the Ki in data set [1] is 6.31 nM; in data set [2], 25.1 nM.

As for `CCCCCC1=NN(C(=O)NC[C@@H]2CC[C@H]3C[C@@H]2C3(C)C)CC1c1ccccc1` (relative stereo) [Compound 1, N-[(1R,2S,5R)-rel-6,6-dimethylbicyclo[3.1.1]heptan-2-methyl]-3-(n-pentyl)-4-phenyl-4,5-dihydro-(1H)-pyrazole-1-carboxamide], the Ki in data set [1] was 3.98 nM; in data set [2], 12.6 nM. For the same compound, the EC50 in data set [3] is 2000 nM.

Compound `CCCCCC1=NN(C(=O)NC2C3CC4CC(C3)CC2C4)CC1c1ccccc1` (centres unmarked) returned a melting point of 71 °C.

Regarding `CC1(C)[C@@H]2CC[C@@]1(C)[C@@H](NC(=O)N1CC(c3ccccc3)C(CC3CC3)=N1)C2` (stereo partly drawn) [Compound 54, N-[Endo-(1R,2S,4R)-1,7,7-trimethylbicyclo[2.2.1]hept-2-yl]-3-(cyclopropylmethyl)-4-phenyl-4,5-dihydro-(1H)-pyrazole-1-carboxamide], the Ki in data set [1] was 25.1 nM; in data set [2], 39.8 nM. For the same compound, the EC50 in data set [3] was 251 nM.

By melting point is commonly meant the temperature, or range, at which the solid turns liquid.
